Here are results for eight molecules from patent publication EP0459298A2, “Use of substituted beta-hydroxyethylamines as potent inhibitors of a fungal exoenzyme” (HOECHST AKTIENGESELLSCHAFT, priority 1990, dated 1991).

Assay [1] deals with Trichophyton mentagrophytes. Put plainly: Percent killing of Trichophyton mentagrophytes in vitro. The assay is classed as cell-based. The settings on record: nach 14 h in aqua dest., read-out: %-Abtötung von Trichophyton mentagrophytes; for killing at 2.5 µg/mL: 2,5 µg/ml. The protocol: (Werte in %-Abtötung von Trichophyton mentagrophytes nach 14 h in aqua dest.)
Assay [2] relates to Plasmopara viticola. Put plainly: Fungicidal activity on vine seedlings inoculated with Plasmopara viticola. The assay is classed as in vivo, Weinsämlinge. The settings on record: untreated infected control = 100. The protocol:
Weinsämlinge wurden ca. 6 Wochen nach der Aussaat mit wäßrigen Suspensionen der zu untersuchenden Verbindungen gleichmäßig benetzt. Nach dem Antrocknen des Spritzbelages wurden die Pflanzen mit einer Sporensuspension von Plasmopara viticola inokuliert und für kurze Zeit in eine Klimakammer (23 °C und 80-90 % rel. Luftfeuchte) gestellt. Nach einer Inkubationszeit von 7 Tagen wurden die Pflanzen zur Sporulation des Pilzes erneut für einige Stunden in die Klimakammer gestellt. Anschließend erfolgte die Auswertung des Befalls. Der Befallsgrad wird ausgedrückt in % befallener Blattfläche im Vergleich zu den unbehandelten, infizierten Kontrollpflanzen und ist in Tabelle 4 wiedergegeben.

For assay [3], the system named is Candida albicans. On the set-up: species or system Maus. The settings on record: in vivo; for Überlebenszeit (bez. auf Fluconazol = 100 % ): 50 mg/kg. An excerpt:
Als Beispiele für die systemische in vivo-Wirksamkeit der Verbindungen dient die systemische Candida albicans Infektion bei der Maus.
Ziel dieser Methode ist es, den Effekt von Präparaten auf eine systemische Candida albicans Infektion zu ermitteln. Die Infektion führt innerhalb von 2-4 Tagen zum Tod der Tiere.
Beschreibung der Methode: Albino Mäuse (NMRI, Männchen, 15-20 g Körpergewicht) werden intravenös mit Candida albicans Hefezellen infiziert (Stamm 200/175), die frisch auf Malzagar vorkultiviert wurden und in physiologischer Kochsalzlösung suspendiert wurden. Die Infektionsdosis, die in dem angegebenen Zeitrahmen zur Lethalität führt, wurde photometrisch eingestellt und enthielt eine Million Hefezellen pro Maus.
Die zu prüfenden Verbindungen werden entweder alleine oder in Kombination mit einem Standardantimykotikum verabreicht. Im durchgeführten Test wurde ein Kombinationspräparat verwendet, wobei als Standardantimykotikum Fluconazol (Fa. Pfizer) diente. Applikationswege sind je nach Substanzgruppe unterschiedlich, wobei der oralen Applikation der Vorzug gegeben wird. Die Mäuse werden 4 Wochen beobachtet, die Mortalität wird täglich registriert, und die Überlebenszeiten der einzelnen Gruppen werden gemittelt und untereinander verglichen. Gruppengröße beträgt durchschnittlich 10 Tiere.
Der Vergleich der Mittelwerte geschieht mit dem Students T Test.
Dosierungen: Fluconazol jeweils 8 x p.o. 50 mg/kg/Tag β-Hydroxy-ethylamin jeweils 14 x p.o. 50 mg/kg/Tag

Assay [4] relates to liposomalen Phospholipase A1 von Säugern. The settings on record: in-vitro-Test; Biochem. Pharmacol. 34, 521-24, 1985; cited from earlier work.
Where [5] appears, read: 125 ppm Wirkstoff (mg Wirkstoff/Liter Spritzbrühe).
Setting [6] is: 250 ppm Wirkstoff (mg Wirkstoff/Liter Spritzbrühe).
Setting [7] is: 500 ppm Wirkstoff (mg Wirkstoff/Liter Spritzbrühe).

Like-named read-outs stand apart in the source and are kept apart here.

For `Cc1cc(COc2ccc(Oc3ccc(Cl)cc3)cc2)n(O)c(=O)c1` [Rilopirox, reference compound], in assay [1], the killing at 5 µg/mL is 96.2%, the killing at 10 µg/mL was 100%, the killing at 20 µg/mL came out at 100% and the killing at 40 µg/mL came to 100%. In assay [1], the killing at 80 µg/mL worked out at 100% and the killing at 2.5 µg/mL was determined as 94.1%.

Take `CCCCNCC(O)COc1ccc(C(C)(C)C)cc1` (centres unmarked) [Verbindung 1.37]: the “mit Plasmopara viticola befallene Blattfläche in %” value in assay [2] (setting [5]), in assay [2] (setting [6]) and in assay [2] (setting [7]) was 0% each time.

On to `OC(Cn1cncn1)(Cn1cncn1)c1ccc(F)cc1F` [Fluconazol, reference compound], for which the “Überlebenszeit (bez. auf Fluconazol = 100 % )” value in assay [3] (po) amounted to 100%.

On to `CC(C)CC(C)NCC(O)COc1ccccc1C1CCCC1` (centres unmarked) [Verbindung 1.10], for which the “Überlebenszeit (bez. auf Fluconazol = 100 % )” value in assay [3] is 149%.

For the molecule `CC(C)(C)c1ccc(OCC(O)CNCc2cccs2)cc1` (centres unmarked) [Verbindung 1.32], the “mit Plasmopara viticola befallene Blattfläche in %” value in assay [2] (setting [5]), in assay [2] (setting [6]) and in assay [2] (setting [7]) was 0% each time.

`COc1ccc(CC(C)(C)NCC(O)COc2ccccc2C2CCCC2)cc1` (centres unmarked) [Verbindung 1.18]: in assay [1], the killing at 5 µg/mL turned out to be 95.7%, the killing at 10 µg/mL turned out to be 100%, the killing at 20 µg/mL amounted to 100% and the killing at 40 µg/mL was found to be 100%. For the same molecule, in assay [1], the killing at 80 µg/mL was 100% and the killing at 2.5 µg/mL was 79.3%.

For `CC(C)(C)c1ccc(OCC(O)CNc2ccccc2)cc1` (centres unmarked) [Verbindung 1.16], in assay [3], the “Verlängerung der Überlebenszeit” value turned out to be 65% and the “Überlebenszeit (bez. auf Fluconazol = 100 % )” value turned out to be 165%.

Turning to `CC(C)NCC(O)COc1cccc2ccccc12` (centres unmarked) [Propranolol], in assay [4], the “Hemmwirkung gegenüber Phospholipase aus Leberzellen” value was “wirksamste Substanz”.
